pEC50: −log10 of the molar value. Where only a bound is given, the exact number is not on record here.

T1 sequence (P21453 whole entry): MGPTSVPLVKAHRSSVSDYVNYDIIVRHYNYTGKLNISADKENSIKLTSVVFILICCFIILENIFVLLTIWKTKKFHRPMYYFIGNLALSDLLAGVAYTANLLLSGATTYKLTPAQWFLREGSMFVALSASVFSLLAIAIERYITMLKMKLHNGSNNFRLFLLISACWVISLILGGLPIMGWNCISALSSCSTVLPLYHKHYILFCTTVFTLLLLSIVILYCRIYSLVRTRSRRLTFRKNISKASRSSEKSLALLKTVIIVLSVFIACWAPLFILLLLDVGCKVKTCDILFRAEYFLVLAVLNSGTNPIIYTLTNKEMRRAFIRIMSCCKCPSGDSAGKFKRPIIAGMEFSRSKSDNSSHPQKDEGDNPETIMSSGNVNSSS

The first assay relates to female C57BL6 mice. Kind of assay: Lymphopenia assay in mice. The settings on record: after 5 hours, 10 mg/Kg subcutaneously, FIG. 1. In kind it is in vivo. The protocol: Test drugs are prepared in a solution containing 3% (w/v) 2-hydroxy propyl β-cyclodextrin (HPBCD) and 1% DMSO to a final concentration of 1 mg/ml, and subcutaneously injected to female C57BL6 mice (CHARLES RIVERS) weighing 20-25 g at the dose of 10 mg/Kg. Blood samples are obtained by puncturing the submandibular skin with a Goldenrod animal lancet at 5, 24, 48, 72, and 96 hrs post drug application. Blood is collected into microvettes (SARSTEDT) containing EDTA tripotassium salt. Lymphocytes in blood samples are counted using a HEMAVET Multispecies Hematology System, HEMAVET HV950FS (Drew Scientific Inc.). (Hale, J. et al Bioorg. & Med. Chem. Lett. 14 (2004) 3351).
A lymphopenia assay in mice; as previously described, was employed to measure the in vivo blood lymphocyte depletion after dosing with 1-{4-[(5-phenylpentyl)oxy]-3-(2-thienyl)benzyl}azetidine-3-carboxylic acid. This S1P1 agonist is useful for S1P-related diseases and exemplified by the lymphopenia in vivo response. […] Lymphocytes in blood samples were counted using a HEMAVET Multispecies Hematology System, HEMAVET HV950FS (Drew Scientific Inc.). […]
Take `O=C(O)C1CN(Cc2ccc(OCCCCCc3ccccc3)c(-c3cccs3)c2)C1` [Compound 16, 1-{4-[(5-phenylpentyl)oxy]-3-(2-thienyl)benzyl}azetidine-3-carboxylic acid]: the “lymphocyte count (number of lymphocytes 10^3/μL blood)” value is listed as < 1 10^3/μL blood.

A further assay concerns the target T1, human S1P1 receptor (Homo sapiens, UniProt P21453).
T1 construct: expressed in transfected cells; membranes used
Kind of assay: GTP γ35S binding assay for S1P1 activity. It counts as biochemical. The settings on record: membranes of cells stably expressing S1P1 receptor, 30 min at 25° C. The protocol:
Compounds were synthesized and tested for S1P1 activity using the GTP γ^35S binding assay. These compounds may be assessed for their ability to activate or block activation of the human S1P1 receptor in cells stably expressing the S1P1 receptor.
GTP γ^35S binding was measured in the medium containing (mM) HEPES 25, pH 7.4, MgCl2 10, NaCl 100, dithitothreitol 0.5, digitonin 0.003%, 0.2 nM GTP γ^35S, and 5 μg membrane protein in a volume of 150 μl. Test compounds were included in the concentration range from 0.08 to 5,000 nM unless indicated otherwise. Membranes were incubated with 100 μM 5′-adenylylimmidodiphosphate for 30 min, and subsequently with 10 μM GDP for 10 min on ice. Drug solutions and membrane were mixed, and then reactions were initiated by adding GTP γ^35S and continued for 30 min at 25° C. Reaction mixtures were filtered over Whatman GF/B filters under vacuum, and washed three times with 3 mL of ice-cold buffer (HEPES 25, pH7.4, MgCl2 10 and NaCl 100). Filters were dried and mixed with scintillant, and counted for ^35S activity using a β-counter. Agonist-induced GTP γ^35S binding was obtained by subtracting that in the absence of agonist. Binding data were analyzed using a non-linear regression method. In case of antagonist assay, the reaction mixture contained 10 nM S1P in the presence of test antagonist at concentrations ranging from 0.08 to 5000 nM.
In the case of `O=C(O)C1CN(Cc2ccc(OCCCCCc3ccccc3)c(C3=CCCC3)c2)C1` [Compound 15, 1-{3-cyclopent-1-en-1-yl-4-[(5-phenylpentyl)oxy]benzyl}azetidine-3-carboxylic acid], the pEC50 (commonly −log10 of the EC50, conventionally taken in molar units) is 7.89.

In turn, `O=C(O)C1CN(Cc2ccc(OCCCCCc3ccccc3)c(-c3cccs3)c2)C1` [Compound 16, 1-{4-[(5-phenylpentyl)oxy]-3-(2-thienyl)benzyl}azetidine-3-carboxylic acid] had a pEC50 of 7.82.

`O=C(O)C1CN(Cc2ccc(OCCCCCc3ccccc3)c(-n3cccn3)c2)C1` [Compound 25, 1-{4-[(5-phenylpentyl)oxy]-3-(1H-pyrazol-1-yl)benzyl}azetidine-3-carboxylic acid]: the pEC50 is 7.66.

With `O=C(O)C1CN(Cc2ccc(SCCCCCc3ccccc3)c(-c3cccs3)c2)C1` [Compound 26, 1-{4-[(5-phenylpentyl)thio]-3-(2-thienyl)benzyl}azetidine-3-carboxylic acid], the pEC50 is 6.74.

On to `O=C(O)C1CC(NCc2ccc(OCCCCCc3ccccc3)c(-c3cccs3)c2)C1` (stereo not drawn) [Compound 28, 3-({4-[(5-phenylpentyl)oxy]-3-(2-thienyl)benzyl}amino)cyclobutanecarboxylic acid], for which the pEC50 was 7.82.

Values taken from patent US8653062B2, “Compounds as receptor modulators with therapeutic utility” (Allergan, Inc., priority 2009, dated 2014).
